Consider 11 compounds from ChEMBL document CHEMBL5465560, “Selectivity Literature for EUbOPEN Chemogenomic Library” (2024).

In test [1] the target is Phosphatidylinositol 4,5-bisphosphate 3-kinase catalytic subunit alpha isoform (Homo sapiens) (UniProt P42336). Put plainly: Selectivity interaction (Kinase panel (Eurofins)) EUB0001564a PIK3CA. The note with it: at 1 µM.
Test [2] addresses Mitogen-activated protein kinase 1 (Homo sapiens, UniProt P28482). Briefly: Selectivity interaction (KinomeScan (DiscoverX)) EUB0001619a MAPK1. The note with it: at 1 µM.
Test [3] has as its target Tyrosine-protein kinase receptor UFO (Homo sapiens) (UniProt P30530). Put plainly: Selectivity interaction (KinomeScan (DiscoverX)) EUB0000607a AXL. The note with it: at 10 µM.
The target of test [4] is Tyrosine-protein kinase HCK (Homo sapiens) (UniProt P08631). Briefly: Selectivity interaction (KinaseProfiler screening (Millipore)) EUB0000601a HCK. The note with it: at 3 µM.
Sequence of Tyrosine-protein kinase HCK (Homo sapiens) (P08631 2-526 limits assumed): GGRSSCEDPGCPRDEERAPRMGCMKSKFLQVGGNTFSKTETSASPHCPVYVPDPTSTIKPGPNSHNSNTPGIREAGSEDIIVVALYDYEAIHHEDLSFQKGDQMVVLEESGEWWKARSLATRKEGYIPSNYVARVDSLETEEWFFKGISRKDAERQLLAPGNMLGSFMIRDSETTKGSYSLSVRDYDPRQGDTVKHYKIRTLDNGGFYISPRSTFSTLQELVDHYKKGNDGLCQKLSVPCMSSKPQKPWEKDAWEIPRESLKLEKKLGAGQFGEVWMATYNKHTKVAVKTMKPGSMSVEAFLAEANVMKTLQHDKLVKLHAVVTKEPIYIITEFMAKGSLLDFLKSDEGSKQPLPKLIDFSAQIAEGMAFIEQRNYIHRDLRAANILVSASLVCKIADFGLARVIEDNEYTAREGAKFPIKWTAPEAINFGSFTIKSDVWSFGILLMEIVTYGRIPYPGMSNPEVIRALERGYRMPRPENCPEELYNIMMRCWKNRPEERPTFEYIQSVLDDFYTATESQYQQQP
The target of test [5] is Tyrosine-protein kinase JAK1 (Homo sapiens, UniProt P23458). Briefly: Selectivity interaction (ActivX KiNativ screen (kinase selectivity in THP-1 cell lysates)) EUB0000639a JAK1. The note with it: lysate, at 0.2 µM. It is filed as subcellular.
In test [6] the target is Tyrosine-protein kinase BTK (Homo sapiens, UniProt Q06187). Put plainly: Selectivity interaction (ActivX KiNativ screen (kinase selectivity in THP-1 cell lysates)) EUB0000639a BTK. It is filed as subcellular. The note with it: lysate, at 0.04 µM.
Sequence of Tyrosine-protein kinase BTK (Q06187 whole entry): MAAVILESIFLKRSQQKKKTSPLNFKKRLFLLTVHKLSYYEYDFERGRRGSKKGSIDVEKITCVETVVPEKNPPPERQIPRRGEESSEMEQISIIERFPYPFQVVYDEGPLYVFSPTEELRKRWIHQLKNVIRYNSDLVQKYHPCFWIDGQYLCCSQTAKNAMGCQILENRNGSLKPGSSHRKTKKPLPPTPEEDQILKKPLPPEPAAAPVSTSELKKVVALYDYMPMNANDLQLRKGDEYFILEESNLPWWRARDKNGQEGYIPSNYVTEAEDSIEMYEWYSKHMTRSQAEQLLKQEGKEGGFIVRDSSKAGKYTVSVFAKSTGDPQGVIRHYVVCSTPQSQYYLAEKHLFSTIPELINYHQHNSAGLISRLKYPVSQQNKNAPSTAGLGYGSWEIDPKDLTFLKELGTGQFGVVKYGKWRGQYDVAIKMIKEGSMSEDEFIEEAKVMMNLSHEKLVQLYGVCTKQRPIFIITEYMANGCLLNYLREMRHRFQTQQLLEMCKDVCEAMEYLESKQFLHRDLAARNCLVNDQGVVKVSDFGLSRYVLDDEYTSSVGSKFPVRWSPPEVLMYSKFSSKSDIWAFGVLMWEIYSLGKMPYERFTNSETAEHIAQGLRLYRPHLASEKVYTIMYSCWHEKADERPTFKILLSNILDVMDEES
In test [7] the target is Histone-lysine N-methyltransferase KMT5C (Homo sapiens) (UniProt Q86Y97). The note with it: at 10 µM.
Test [8] concerns the target T1, Serine/threonine-protein kinase TAO3 (Homo sapiens) (UniProt Q9H2K8).
T1 sequence (whole entry): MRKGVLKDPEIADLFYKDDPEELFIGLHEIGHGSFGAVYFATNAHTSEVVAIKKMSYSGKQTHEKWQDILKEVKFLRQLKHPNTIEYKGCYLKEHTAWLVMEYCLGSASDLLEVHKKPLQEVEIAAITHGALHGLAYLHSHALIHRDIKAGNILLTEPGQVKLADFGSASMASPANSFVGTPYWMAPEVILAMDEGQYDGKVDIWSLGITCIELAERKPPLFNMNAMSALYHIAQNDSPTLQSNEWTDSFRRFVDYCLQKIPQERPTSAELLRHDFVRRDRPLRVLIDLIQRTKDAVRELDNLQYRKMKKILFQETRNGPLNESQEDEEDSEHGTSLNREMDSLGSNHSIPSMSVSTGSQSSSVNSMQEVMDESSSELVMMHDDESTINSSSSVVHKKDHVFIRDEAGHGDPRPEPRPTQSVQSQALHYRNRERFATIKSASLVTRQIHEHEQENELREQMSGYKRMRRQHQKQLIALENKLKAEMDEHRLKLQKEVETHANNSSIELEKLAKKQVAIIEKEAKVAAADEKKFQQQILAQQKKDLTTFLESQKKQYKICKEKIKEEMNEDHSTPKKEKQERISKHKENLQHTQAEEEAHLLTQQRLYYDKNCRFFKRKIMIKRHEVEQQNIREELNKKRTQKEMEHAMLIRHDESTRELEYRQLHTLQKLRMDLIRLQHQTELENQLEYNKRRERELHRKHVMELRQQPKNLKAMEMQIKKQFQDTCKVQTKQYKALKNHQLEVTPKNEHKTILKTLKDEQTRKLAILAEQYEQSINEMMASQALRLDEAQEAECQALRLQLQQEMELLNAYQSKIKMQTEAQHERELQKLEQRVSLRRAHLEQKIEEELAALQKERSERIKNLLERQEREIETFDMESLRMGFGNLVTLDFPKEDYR
Put plainly: Selectivity interaction (KinomeScan (DiscoverX)) EUB0000045b TAOK3.

For test [9], the target named is Mitogen-activated protein kinase 9 (Homo sapiens, UniProt P45984). Put plainly: Selectivity interaction (Enzymatic assay) EUB0001199aCl MAPK9.
Sequence of Mitogen-activated protein kinase 9 (P45984 whole entry): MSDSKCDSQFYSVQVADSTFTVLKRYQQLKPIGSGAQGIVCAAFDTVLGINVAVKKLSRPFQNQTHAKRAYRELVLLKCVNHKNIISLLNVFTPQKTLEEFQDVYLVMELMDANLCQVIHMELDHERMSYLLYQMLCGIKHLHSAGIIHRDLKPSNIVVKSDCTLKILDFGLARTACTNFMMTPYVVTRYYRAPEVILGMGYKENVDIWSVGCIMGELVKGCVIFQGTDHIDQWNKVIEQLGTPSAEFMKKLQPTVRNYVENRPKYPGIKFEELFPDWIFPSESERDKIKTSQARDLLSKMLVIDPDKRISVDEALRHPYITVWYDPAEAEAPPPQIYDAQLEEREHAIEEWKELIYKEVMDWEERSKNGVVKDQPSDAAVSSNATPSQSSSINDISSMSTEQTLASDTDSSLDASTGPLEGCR
Test [10] relates to Tyrosine-protein kinase ABL1 (Homo sapiens), P00519 [E255K]. Briefly: (§1) Selectivity interaction (KinomeScan (DiscoverX)) EUB0001049a ABL1. The note with it: at 1 µM.
In test [11] the target is Tyrosine-protein kinase ABL1 (Homo sapiens, UniProt P00519). The description is as §1. The note with it: at 1 µM.
The subject of test [12] is Tyrosine-protein kinase ABL1 (Homo sapiens), P00519 [M351T]. The description is as §1. The note with it: at 1 µM.
Test [13] concerns Tyrosine-protein kinase ABL1 (Homo sapiens), P00519 [T315I]. The description is as §1. The note with it: at 1 µM.
In test [14] the test system is Tyrosine-protein kinase ABL1 (Homo sapiens), P00519 [H396P]. The test is described as §1. The note with it: at 1 µM.
The test system of test [15] is Tyrosine-protein kinase ABL1 (Homo sapiens), P00519 [F317L]. The test is described as §1. The note with it: at 1 µM.
Test [16] concerns Tyrosine-protein kinase ABL1 (Homo sapiens), P00519 [Y253F]. The test is described as §1. The note with it: at 1 µM.
For test [17], the system named is Tyrosine-protein kinase ABL1 (Homo sapiens), P00519 [Q252H]. The description is as §1. The note with it: at 1 µM.
The test system of test [18] is Tyrosine-protein kinase ABL1 (Homo sapiens), P00519 [F317I]. The description is as §1. The note with it: at 1 µM.
Test [19] deals with Protein polybromo-1 (Homo sapiens) (UniProt Q86U86). Put plainly: Selectivity interaction (Human bromodomain panel (DSF assay)) EUB0000233b PBRM1. For orientation: Differential scanning fluorimetry follows unfolding on heating by fluorescence.
Sequence of Protein polybromo-1 (Homo sapiens) (Q86U86 whole entry): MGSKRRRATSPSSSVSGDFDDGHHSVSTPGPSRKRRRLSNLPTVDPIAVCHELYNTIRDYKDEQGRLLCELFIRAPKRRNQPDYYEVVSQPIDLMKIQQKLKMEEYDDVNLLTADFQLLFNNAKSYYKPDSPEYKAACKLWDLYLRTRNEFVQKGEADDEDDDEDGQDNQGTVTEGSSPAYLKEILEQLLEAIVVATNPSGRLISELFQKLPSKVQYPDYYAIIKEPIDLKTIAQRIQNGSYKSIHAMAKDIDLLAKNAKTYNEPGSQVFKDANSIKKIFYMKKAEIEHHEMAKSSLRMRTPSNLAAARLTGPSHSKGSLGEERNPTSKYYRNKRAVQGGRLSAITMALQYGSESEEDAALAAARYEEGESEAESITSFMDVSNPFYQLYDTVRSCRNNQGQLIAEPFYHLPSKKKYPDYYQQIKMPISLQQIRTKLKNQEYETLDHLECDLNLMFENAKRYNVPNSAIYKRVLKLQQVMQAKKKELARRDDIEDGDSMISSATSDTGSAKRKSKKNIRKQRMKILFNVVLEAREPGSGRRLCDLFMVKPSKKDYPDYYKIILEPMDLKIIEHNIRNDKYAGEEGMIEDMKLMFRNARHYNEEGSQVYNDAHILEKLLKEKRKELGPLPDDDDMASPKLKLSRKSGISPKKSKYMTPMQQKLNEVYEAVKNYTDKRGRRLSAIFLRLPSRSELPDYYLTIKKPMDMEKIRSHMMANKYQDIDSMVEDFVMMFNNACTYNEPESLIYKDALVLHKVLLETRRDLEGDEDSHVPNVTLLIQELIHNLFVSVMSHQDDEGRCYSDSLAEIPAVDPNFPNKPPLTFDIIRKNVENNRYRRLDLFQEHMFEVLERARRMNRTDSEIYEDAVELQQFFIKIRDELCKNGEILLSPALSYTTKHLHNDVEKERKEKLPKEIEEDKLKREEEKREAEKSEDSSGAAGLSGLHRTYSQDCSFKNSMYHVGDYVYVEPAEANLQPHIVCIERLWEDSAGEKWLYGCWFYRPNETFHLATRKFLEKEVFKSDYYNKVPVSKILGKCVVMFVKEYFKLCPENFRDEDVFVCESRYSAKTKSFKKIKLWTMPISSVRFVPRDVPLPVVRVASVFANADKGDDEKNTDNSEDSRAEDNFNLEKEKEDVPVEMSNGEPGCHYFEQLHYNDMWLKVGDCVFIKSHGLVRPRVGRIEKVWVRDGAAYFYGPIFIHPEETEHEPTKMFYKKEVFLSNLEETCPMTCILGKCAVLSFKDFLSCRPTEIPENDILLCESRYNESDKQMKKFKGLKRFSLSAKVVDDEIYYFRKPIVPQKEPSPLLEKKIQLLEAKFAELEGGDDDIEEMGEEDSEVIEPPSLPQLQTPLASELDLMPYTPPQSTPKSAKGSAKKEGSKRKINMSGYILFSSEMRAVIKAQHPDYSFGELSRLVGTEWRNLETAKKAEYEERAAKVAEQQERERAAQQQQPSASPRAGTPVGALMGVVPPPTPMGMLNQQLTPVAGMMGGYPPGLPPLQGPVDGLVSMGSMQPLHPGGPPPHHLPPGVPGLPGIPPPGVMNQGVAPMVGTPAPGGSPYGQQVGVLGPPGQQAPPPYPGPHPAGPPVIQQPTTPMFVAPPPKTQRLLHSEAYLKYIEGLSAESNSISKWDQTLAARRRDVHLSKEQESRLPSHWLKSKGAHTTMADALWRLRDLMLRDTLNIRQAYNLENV
Test [20] has as its target T2, Calcium/calmodulin-dependent protein kinase type IV (Homo sapiens) (UniProt Q16566).
T2 sequence (whole entry): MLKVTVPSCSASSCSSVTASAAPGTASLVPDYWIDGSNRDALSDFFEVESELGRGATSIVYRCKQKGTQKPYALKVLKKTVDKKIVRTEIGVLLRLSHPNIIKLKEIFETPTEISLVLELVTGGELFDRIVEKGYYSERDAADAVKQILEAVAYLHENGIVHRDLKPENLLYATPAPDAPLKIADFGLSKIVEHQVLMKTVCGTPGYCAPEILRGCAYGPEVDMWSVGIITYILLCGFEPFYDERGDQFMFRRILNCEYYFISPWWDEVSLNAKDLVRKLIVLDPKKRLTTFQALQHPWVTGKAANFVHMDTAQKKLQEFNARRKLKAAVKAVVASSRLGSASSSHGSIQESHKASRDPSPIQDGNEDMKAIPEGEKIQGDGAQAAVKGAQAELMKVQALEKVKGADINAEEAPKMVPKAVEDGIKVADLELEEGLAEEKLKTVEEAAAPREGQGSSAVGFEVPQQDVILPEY
Put plainly: Selectivity interaction (Kinase panel (KiNativ target engagement assay in Jurkat cells)) EUB0001635a CAMK4. It is filed as cell-based. The note with it: Selectivity number of off-targets 0.0, Selectivity number of targets 233.0, Source Knowledge https://www.sciencedirect.com/science/article/pii/S2451945619300674?via%3Dihub, at 1 µM.

For orientation: IC50 means the point on the concentration scale where inhibition reaches its midpoint. Low values mean inhibition by little substance, high ones a need for much substance.

Where only a bound is given, the exact number is not on record here.

Sequence of Mitogen-activated protein kinase 1 (P28482 whole entry): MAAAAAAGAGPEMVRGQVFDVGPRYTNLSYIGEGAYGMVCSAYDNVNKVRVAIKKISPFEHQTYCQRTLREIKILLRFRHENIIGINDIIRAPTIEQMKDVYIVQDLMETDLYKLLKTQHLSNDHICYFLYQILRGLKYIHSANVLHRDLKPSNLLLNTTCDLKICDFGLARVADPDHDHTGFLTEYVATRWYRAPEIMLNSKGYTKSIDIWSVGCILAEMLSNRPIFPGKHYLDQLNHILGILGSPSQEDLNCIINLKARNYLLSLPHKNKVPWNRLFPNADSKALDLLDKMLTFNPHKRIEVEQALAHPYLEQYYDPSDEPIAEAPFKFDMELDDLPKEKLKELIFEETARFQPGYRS
Sequence of Phosphatidylinositol 4,5-bisphosphate 3-kinase catalytic subunit alpha isoform (Homo sapiens) (P42336 whole entry, canonical isoform): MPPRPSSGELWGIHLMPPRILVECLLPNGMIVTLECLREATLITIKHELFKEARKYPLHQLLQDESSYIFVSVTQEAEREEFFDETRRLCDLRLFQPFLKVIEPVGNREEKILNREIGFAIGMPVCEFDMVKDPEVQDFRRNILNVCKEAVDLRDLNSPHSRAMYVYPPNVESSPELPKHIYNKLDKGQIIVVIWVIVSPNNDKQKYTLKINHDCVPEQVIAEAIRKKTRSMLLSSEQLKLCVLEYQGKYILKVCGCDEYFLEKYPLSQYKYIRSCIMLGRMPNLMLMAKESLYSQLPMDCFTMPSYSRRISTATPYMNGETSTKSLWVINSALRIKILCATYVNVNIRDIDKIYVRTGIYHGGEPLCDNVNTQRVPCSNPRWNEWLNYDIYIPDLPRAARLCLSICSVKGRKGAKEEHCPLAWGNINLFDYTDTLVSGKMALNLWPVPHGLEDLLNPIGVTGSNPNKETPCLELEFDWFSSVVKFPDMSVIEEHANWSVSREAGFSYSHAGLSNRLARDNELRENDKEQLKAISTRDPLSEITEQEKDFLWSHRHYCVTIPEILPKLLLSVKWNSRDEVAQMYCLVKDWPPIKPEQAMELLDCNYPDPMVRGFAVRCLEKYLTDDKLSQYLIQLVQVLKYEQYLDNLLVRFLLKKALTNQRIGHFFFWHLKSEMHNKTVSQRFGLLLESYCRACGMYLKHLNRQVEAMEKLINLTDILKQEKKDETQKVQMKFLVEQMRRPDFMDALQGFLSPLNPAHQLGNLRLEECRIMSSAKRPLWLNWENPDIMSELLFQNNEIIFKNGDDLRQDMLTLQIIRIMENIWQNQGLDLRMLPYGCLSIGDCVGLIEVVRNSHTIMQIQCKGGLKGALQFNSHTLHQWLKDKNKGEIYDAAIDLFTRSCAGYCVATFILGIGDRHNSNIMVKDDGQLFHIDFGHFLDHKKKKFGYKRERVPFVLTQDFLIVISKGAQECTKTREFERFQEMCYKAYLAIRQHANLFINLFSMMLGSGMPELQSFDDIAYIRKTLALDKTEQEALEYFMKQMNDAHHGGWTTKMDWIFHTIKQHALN

As to `CC[C@@H](Nc1c(C#N)c(-c2ccc(-c3cccc(C)c3F)cc2)nc2cnccc12)C(=O)O` [BAY-091], the % of inhibition in [1] stood at 30.9%. Regarding `N#Cc1cccc(-c2c[nH]c3ncnc(N4CCOCC4)c23)c1`, the % of control in [2] was 98%. The compound `CNC(=O)Nc1ccc(-c2nc(N3CC4CCC(C3)O4)c3cnn(C4CCC5(CC4)OCCO5)c3n2)cc1` yielded a % of control in [3] of 88%. For `CCc1cc(Nc2nccc(-c3c(-c4ccc(OC)c(C(=O)Nc5c(F)cccc5F)c4)nc4ccccn34)n2)c(OC)cc1N1CCC(N2CCN(S(C)(=O)=O)CC2)CC1`, the % of inhibition in test [4] was 81%. `CC[C@@H]1[C@H](F)C(=O)N[C@@H]1COc1nccc2cc(C(N)=O)c(OC)cc12` [ZIMLOVISERTIB]: the values for the % of inhibition in test [5] and in test [6] were -1.1% and -17.7%, respectively.

On to `CNCCN1CCC(c2cc(CN(C)C(=O)c3cccc(Oc4ccccc4)c3)ccn2)CC1`, for which the % activity in test [7] was greater than 90%.

For `C=CC(=O)Nc1cc(-n2c(=O)ccc3cnc4ccc(-c5ccc(NS(C)(=O)=O)cc5)cc4c32)ccc1C`, the % of control in [8] (at 1 µM) and in [8] (at 10 µM) was 100% in each case.

The compound `CN1Cc2nccc(-c3cn(C)nc3-c3ccc(F)cc3)c2C1=O` yielded an IC50 in [9] of 4.95 µM. With `COc1cc(Nc2nc(C)cc(-c3cnn4nc(OC)ccc34)n2)cc(C(F)(F)F)c1`, the % of control in test [10] turned out to be 86%; in test [11], 63%; in test [12] it was 99%; in test [13], 75%; in test [14], 64%; in test [15] it was 92%. Further, the % of control in test [16] turned out to be 70%; in test [17], 68%; in test [18], 97%. `CN(C)CCCOc1ccc(-c2cc(NCCCn3cccn3)nc(S(C)(=O)=O)n2)cc1`: in [19], the dTM is less than 2 K. As for `C=CC(=O)Nc1ccc(C(=O)Nc2[nH]nc3c2CN(C(=O)N[C@H](CN(C)C)c2ccccc2)C3(C)C)cc1`, the % of engagement in test [20] was -6.4%.
